Molecular target: PKC theta (Homo sapiens, UniProt Q04759)
Experiment: PKC Theta III assay, similar to PKC theta I with fluorescence read out
Type: biochemical
Conditions: fluorescence read out rather than UV
Procedure: An assay buffer solution was prepared which consisted of 100 mM HEPES (pH 7.5), 10 mM MgCl2, 25 mM NaCl, 0.1 mM EDTA and 0.01% Brij. […] To 60 μL of this enzyme buffer, in a 384 well plate, was added 2 μL of VRT stock solution in DMSO. The mixture was allowed to equilibrate for 10 mins at 30° C. The enzyme reaction was initiated by the addition of 5 μL stock ATP solution prepared in assay buffer to a final assay concentration of 240 μM. Initial rate data was determined from the rate of change of absorbance at 340 nm (corresponding to stoichiometric consumption of NADH) using a Molecular Devices Spectramax plate reader (Sunnyvale, Calif.) over 15 mins at 30° C. For each Ki determination 12 data points covering the VRT concentration range of 0-20 μM were obtained in duplicate (DMSO stocks were prepared from an initial 10 mM VRT stock with subsequent 1:2 serial dilutions). Ki values were calculated from initial rate data by non-linear regression using the Prism software package (Prism 4.0a, Graphpad Software, San Diego, Calif.).
Compounds tested in an assay similar to PKC theta I above with a fluorescence read out rather than a UV read out gave the following results: D compounds are (2-aminopyridin-3-yl)(6-(1-benzylpiperidin-4-ylamino)pyridin-2-yl)methanone, and (2-aminopyridin-3-yl)(6-(2,3-dihydroxypropylamino)pyridin-2-yl)methanone (naming by ChemDraw Ultre version 10.0).

Chain of PKC theta (Q04759 whole entry): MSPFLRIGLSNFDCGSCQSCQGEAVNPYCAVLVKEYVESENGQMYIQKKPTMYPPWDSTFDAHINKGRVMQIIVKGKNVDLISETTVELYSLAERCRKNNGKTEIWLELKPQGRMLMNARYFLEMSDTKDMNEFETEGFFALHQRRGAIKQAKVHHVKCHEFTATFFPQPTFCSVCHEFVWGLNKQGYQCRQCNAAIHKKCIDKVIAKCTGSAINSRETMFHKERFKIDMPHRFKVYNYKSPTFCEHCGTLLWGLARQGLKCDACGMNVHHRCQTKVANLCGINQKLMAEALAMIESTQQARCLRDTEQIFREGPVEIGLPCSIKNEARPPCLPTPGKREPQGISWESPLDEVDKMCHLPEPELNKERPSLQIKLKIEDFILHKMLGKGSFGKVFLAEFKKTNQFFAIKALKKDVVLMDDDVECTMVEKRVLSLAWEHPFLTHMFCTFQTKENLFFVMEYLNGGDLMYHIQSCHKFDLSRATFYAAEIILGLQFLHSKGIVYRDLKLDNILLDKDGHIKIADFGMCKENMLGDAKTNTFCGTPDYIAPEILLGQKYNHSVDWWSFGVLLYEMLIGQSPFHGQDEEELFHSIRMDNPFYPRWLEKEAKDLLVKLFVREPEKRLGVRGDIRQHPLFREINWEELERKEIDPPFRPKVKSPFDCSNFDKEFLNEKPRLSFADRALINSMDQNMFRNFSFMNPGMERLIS

- Ki: > 2800 nM
Structure (SMILES): Nc1ncccc1C(=O)c1cccc(NCC(O)CO)n1 (stereo not shown) [(2-aminopyridin-3-yl)(6-(2,3-dihydroxypropylamino)pyridin-2-yl)methanone]
